Results published in patent US11925690B2, “Bifunctional molecules for targeting Rpn11” (AMPHISTA THERAPEUTICS LTD, priority 2018, dated 2024).

Experiments:
Brd4 = target: T1, Brd4 (Homo sapiens, UniProt O60885); experiment: Mechanistic evaluation: Brd4 degradation after inhibitor pre-treatment; format: cell-based; details: HEK293, 1 μM degrader 4 h
T1 construct: immunoblot analysis of Brd4 following 4 h treatment of HEK293 cells; endogenous in cells; host or cells: HEK293 (CRL-1573)
Protocol: HeLa (5×10^5) and HEK293 (1×10^6) cells were seeded in standard 6-well plates (2 mL medium) overnight before pre-treatment with inhibitors (10 μM bortezomib, 10 μM capzimin, 10 μM JQ1). After a 0.5 h pre-incubation time, cells were subsequently treated with vehicle, 1 μM MZ1 or 1 μM 11JQ15, yielding a final overall DMSO concentration of 0.2% v/v. After 4 h incubation, cells were washed with DPBS (Gibco) and lysed using 85 μL RIPA buffer (Sigma-Aldrich) supplemented with cOmplete Mini EDTA-free protease inhibitor cocktail (Roche) and benzonase. Lysates were clarified by centrifugation (20000 g, 10 min, 4° C.) and the total protein content of the supernatant was quantified using a Bradford colorimetric assay. Samples were prepared using equal amounts of total protein and LDS sample buffer (Invitrogen).
Brd4 band intensities were normalized to tubulin loading control and reported in FIG. 6B as % of the average 0.1% DMSO vehicle intensity. Each bar is mean±SEM of three independent experiments performed in duplicate (n=3).

human cancer cell lines = details: cited from earlier work
Brd2 = Brd2 (Homo sapiens, UniProt P25440); experiment: Concentration-dependent BET degradation, immunoblot; format: cell-based; design: endogenous in cells; host or cells: HEK293 (CRL-1573), HeLa (CCL-2); details: 1 nM-10 μM
Chain of Brd2 (P25440 whole entry): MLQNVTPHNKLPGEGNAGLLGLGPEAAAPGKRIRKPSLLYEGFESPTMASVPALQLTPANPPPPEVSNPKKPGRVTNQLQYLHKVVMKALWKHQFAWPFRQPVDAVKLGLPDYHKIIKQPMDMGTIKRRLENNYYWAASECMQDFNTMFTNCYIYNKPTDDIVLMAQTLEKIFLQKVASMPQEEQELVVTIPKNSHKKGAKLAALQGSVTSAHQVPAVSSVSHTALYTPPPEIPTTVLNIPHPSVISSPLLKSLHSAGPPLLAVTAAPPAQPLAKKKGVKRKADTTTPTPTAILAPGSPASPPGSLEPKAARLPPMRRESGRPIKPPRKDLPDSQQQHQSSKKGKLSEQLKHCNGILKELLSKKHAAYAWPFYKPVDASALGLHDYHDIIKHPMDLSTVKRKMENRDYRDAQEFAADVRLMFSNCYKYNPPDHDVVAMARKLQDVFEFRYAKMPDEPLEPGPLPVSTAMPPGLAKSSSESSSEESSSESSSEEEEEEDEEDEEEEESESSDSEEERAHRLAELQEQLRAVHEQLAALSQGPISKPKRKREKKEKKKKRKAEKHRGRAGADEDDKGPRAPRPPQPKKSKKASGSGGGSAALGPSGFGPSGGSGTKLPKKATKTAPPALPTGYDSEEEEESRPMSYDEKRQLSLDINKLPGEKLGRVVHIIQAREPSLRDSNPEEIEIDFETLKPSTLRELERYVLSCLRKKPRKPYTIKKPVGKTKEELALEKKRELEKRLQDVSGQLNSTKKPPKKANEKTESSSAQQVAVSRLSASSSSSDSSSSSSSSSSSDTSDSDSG
Protocol: (§1) Immunoblotting. Proteins were separated by SDS-PAGE on NuPage 4-12% Bis-Tris gels, followed by transfer to Amersham Protran 0.45 NC nitrocellulose membrane (GE Healthcare) using wet transfer. Membranes were blocked using 5% w/v milk in Tris-buffered saline (TBS) with 0.1% Tween-20. Blots were probed (overnight at 4 °C) using anti-Brd2 (Abcam ab139690, 1:2,000 dilution), anti-Brd3 (Abcam ab50818, 1:500 dilution), and anti-Brd4 (Abcam ab128874, 1:1,000 dilution) primary antibodies, as appropriate. The next day, blots were washed with TBST and incubated (1 h at Room temperature) with anti-Tubulin hFAB-rhodamine (BioRad, 12004166) primary antibody, and either anti-rabbit IRDye 800CW (Licor 1:1,000 dilution) or anti-mouse IRDye 800CW (Licor 1:1,000 dilution) secondary antibody. Blots were developed using a Bio-Rad ChemiDoc MP Imaging System, and band quantification was performed using Image Studio software (LiCor). Band intensities were normalized to the tubulin loading control and reported as % of the average 0.1% DMSO vehicle intensity. Degradation data was plotted and analysed using Prism (Graphpad, version 8).
(§2) HeLa (5×10^5) and HEK293 (1×10^6) cells were seeded in standard 6-well plates (2 mL medium) overnight before treatment with compounds at the desired concentration (1 nM-10 μM), with a final DMSO concentration of 0.1% v/v. After 4 h treatment time, cells were washed with DPBS (Gibco) and lysed using 85 μL RIPA buffer (Sigma-Aldrich) supplemented with cOmplete Mini EDTA-free protease inhibitor cocktail (Roche) and benzonase. Lysates were clarified by centrifugation (20000 g, 10 min, 4° C.) and the total protein content of the supernatant was quantified using a Bradford colorimetric assay. Samples were prepared using equal amounts of total protein and LDS sample buffer (Invitrogen). Band intensities were normalized to the tubulin loading control and reported as % of the average 0.1% DMSO vehicle intensity. Degradation data was plotted and analysed using Prism (Graphpad, version 8).
(§3) MZ1 and 11JQ17 were used at 1 μM for positive and negative controls, respectively. […] For the table, Dmax: +(Dmax≤25%); ++(26%≤Dmax≤50%); +++(51%≤Dmax≤70%); ++++(71%≤DC50: A (DC50≤50 nM); B (51 nM≤DC50≤500 nM); C (501 nM≤DC50).

Brd3 = Brd3 (Homo sapiens, UniProt Q15059); experiment: as above; format: cell-based; design: endogenous in cells; host or cells: HEK293 (CRL-1573), HeLa (CCL-2); details: 1 nM-10 μM
Chain of Brd3 (Q15059 whole entry): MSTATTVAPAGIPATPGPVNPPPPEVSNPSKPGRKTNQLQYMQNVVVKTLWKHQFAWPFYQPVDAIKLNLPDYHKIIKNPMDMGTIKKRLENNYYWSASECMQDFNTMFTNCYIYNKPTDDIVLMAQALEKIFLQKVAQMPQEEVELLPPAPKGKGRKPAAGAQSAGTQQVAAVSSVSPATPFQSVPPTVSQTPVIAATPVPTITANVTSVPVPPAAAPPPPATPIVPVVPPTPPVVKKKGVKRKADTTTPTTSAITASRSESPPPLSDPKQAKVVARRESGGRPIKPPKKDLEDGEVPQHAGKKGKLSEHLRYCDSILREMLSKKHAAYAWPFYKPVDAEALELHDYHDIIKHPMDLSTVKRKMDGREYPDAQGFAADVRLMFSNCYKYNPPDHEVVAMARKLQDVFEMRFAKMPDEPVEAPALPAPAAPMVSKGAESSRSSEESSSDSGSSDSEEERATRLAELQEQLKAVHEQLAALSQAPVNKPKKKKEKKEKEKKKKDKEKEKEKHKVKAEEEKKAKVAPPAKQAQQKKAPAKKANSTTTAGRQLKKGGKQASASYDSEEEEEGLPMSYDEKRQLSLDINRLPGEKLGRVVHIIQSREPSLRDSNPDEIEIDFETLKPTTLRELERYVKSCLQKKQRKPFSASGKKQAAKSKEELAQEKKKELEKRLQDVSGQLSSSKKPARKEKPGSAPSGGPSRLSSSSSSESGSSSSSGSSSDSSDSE
Protocol: as §1, §2, §3

Brd4 (S) = target: T2, Brd4 (S) (Homo sapiens, UniProt O60885); experiment: as above; format: cell-based; details: 4 h, 1 nM-10 μM
T2 construct: endogenous in cells; host or cells: HEK293 (CRL-1573), HeLa (CCL-2)
Protocol: as §1, §2, §3

Brd4 (L) = target: T3, Brd4 (L) (Homo sapiens, UniProt O60885); experiment: as above; format: cell-based; details: 4 h, 1 nM-10 μM
T3 construct: endogenous in cells; host or cells: HEK293 (CRL-1573), HeLa (CCL-2)
Protocol: as §1, §2, §3

SMILES: Cc1ncsc1-c1ccc(CNC(=O)[C@@H]2C[C@@H](O)CN2C(=O)[C@@H](NC(=O)COCCOCCOCCNC(=O)C[C@@H]2N=C(c3ccc(Cl)cc3)c3c(sc(C)c3C)-n3c(C)nnc32)C(C)(C)C)cc1 [MZ1, reference compound]
- Brd4 degradation in the presence of JQ1 (Brd4; 10 μM JQ1 pre-treatment 0.5 h): blocked
- Brd4 degradation in the presence of bortezomib (Brd4; 10 μM bortezomib pre-treatment 0.5 h): blocked
- Brd4 degradation in the presence of capzimin (Brd4; 10 μM capzimin pre-treatment 0.5 h): only blocked by bortezomib and JQ1

SMILES: Cn1c(COP(=O)(NCCBr)NCCBr)cnc1[N+](=O)[O-] [TH-302, (1-methyl-2-nitro-1H-imidazole5-yl) N, N0-bis (2-bromoethyl) diamidophosphate]
- cytotoxic potency (human cancer cell lines; hypoxic conditions): greatly enhanced cytotoxic potency
- cytotoxic activity (human cancer cell lines; normoxic conditions): little cytotoxic activity

SMILES: Cc1sc2c(c1C)C(c1ccc(Cl)cc1)=N[C@@H](CC(=O)NCCCCNC(=O)c1cc(S)c3ncc(C(=O)NCc4ccc(F)cc4)cc3c1)c1nnc(C)n1-2 [Example 11JQ12]
- DC50 (Brd2; HEK293, Brd2, 4 h): ≥ 501 nM
- Dmax (Brd2; HEK293, Brd2, 4 h): 26 to 50%
- DC50 (Brd2; HeLa, Brd2, 4 h): ≥ 501 nM
- Dmax (Brd2; HeLa, Brd2, 4 h): 26 to 50%
- DC50 (Brd3; HEK293, Brd3, 4 h): ≥ 501 nM
- Dmax (Brd3; HEK293, Brd3, 4 h): 26 to 50%
- DC50 (Brd3; HeLa, Brd3, 4 h): ≥ 501 nM
- Dmax (Brd3; HeLa, Brd3, 4 h): ≤ 25%
- DC50 (Brd4 (S); HEK293, Brd4 (S)): 51 to 500 nM
- Dmax (Brd4 (S); HEK293, Brd4 (S)): ≥ 71%
- DC50 (Brd4 (S); HeLa): ≥ 501 nM
- Dmax (Brd4 (S); HeLa): ≥ 71%
- DC50 (Brd4 (L); HEK293, Brd4 (L)): 51 to 500 nM
- Dmax (Brd4 (L); HEK293, Brd4 (L)): ≥ 71%
- DC50 (Brd4 (L); HeLa): ≥ 501 nM
- Dmax (Brd4 (L); HeLa): ≥ 71%
